Converted amounts (≈) assume the structure as drawn. “And” between values parts separate entries of the source, which are not always exact repeats. Equal values may be shown once. Read-outs that look alike come from different tables or passages of the source.
Tests used:
C. difficile [1] = format: in vivo, mice
TcdB027 = TcdB027 (Clostridioides difficile, UniProt A0A9R0CDJ3); format: cell-based, C. difficile
TcdA = target: T1, TcdA (Clostridioides difficile, UniProt P16154); assay: cell-based; format: cell-based, C. difficile; conditions: for IC50: IC50 TcdA, means ± s.d.
T1 construct: made in house; host or cells: Bacillus megaterium (the general sentence on recombinant toxins)
T1 sequence (P16154 whole entry, looked up): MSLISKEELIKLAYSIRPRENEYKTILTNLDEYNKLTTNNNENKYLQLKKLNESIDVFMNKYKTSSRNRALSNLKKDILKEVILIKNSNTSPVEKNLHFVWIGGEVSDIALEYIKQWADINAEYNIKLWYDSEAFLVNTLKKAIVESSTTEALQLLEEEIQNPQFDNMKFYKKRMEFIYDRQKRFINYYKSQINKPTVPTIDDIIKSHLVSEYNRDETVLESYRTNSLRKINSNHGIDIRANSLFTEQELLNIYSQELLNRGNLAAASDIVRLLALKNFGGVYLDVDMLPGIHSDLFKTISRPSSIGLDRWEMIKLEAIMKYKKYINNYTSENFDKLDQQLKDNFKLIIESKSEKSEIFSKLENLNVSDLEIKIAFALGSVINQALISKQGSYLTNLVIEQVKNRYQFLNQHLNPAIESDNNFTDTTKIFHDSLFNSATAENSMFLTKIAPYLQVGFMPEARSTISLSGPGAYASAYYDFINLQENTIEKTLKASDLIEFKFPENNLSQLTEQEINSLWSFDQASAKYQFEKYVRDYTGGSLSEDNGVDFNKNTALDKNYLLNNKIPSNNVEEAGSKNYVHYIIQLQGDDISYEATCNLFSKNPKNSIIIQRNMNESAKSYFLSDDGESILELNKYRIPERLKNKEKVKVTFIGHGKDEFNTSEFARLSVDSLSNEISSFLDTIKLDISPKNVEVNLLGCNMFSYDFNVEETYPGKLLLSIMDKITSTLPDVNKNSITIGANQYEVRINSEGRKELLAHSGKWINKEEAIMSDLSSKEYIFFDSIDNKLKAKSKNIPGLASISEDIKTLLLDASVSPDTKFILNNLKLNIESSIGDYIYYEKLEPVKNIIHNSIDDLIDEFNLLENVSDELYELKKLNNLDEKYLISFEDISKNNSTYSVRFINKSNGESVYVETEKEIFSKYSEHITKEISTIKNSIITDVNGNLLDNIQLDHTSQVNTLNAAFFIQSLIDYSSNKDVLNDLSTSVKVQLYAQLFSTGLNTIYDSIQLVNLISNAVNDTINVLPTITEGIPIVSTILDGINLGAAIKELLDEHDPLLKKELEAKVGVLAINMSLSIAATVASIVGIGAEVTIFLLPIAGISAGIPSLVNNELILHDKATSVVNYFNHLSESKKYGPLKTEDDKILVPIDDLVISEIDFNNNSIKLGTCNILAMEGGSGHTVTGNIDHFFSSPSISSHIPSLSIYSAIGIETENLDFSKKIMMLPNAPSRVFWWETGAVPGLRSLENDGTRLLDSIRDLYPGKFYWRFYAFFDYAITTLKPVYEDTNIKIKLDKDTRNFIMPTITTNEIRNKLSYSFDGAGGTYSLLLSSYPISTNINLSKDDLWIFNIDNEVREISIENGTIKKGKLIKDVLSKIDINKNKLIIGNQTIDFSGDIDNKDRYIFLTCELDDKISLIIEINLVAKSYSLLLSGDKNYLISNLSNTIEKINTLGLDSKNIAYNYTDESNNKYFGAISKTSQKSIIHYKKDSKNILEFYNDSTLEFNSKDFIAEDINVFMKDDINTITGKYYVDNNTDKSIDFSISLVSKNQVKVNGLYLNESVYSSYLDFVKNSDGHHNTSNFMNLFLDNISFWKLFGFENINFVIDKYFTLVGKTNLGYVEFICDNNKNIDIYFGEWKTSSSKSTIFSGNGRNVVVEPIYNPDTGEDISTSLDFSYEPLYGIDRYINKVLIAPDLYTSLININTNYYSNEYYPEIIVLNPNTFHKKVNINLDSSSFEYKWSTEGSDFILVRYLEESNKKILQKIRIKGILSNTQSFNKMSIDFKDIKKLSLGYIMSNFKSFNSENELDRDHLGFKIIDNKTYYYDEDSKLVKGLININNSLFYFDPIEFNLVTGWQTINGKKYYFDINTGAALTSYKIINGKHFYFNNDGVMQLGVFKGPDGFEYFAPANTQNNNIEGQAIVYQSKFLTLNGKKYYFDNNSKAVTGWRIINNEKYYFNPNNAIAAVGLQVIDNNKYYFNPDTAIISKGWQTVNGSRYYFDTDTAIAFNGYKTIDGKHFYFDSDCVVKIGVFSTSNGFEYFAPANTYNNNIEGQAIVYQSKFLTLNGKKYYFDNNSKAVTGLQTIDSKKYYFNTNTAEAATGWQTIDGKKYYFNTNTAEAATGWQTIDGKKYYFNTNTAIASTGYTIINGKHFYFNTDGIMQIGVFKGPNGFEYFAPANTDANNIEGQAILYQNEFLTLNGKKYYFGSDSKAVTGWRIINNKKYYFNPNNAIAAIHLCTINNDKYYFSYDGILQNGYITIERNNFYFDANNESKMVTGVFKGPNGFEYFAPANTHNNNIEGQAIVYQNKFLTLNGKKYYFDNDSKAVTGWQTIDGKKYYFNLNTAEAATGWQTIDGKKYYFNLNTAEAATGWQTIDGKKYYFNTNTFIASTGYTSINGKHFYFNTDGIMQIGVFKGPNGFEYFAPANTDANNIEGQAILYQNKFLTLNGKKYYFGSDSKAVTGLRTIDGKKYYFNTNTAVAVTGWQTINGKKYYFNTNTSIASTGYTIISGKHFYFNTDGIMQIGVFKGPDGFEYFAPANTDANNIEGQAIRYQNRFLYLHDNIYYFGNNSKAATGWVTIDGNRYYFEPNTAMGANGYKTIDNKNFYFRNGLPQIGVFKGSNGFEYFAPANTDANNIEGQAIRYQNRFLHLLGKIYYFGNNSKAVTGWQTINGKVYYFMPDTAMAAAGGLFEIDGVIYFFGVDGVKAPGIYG

CaCo-2 cells = assay: CaCo-2 monolayer integrity / trans-epithelial resistance after TcdB; format: cell-based, human
[2] = rats; cited from earlier work
C. sporogenes ATCC3584 = assay: microbe, parasite or virus in culture; format: cell-based; conditions: Clostridium sporogenes
[3] = tested on: C. clostridioforme ATCC25537; assay: organism not typed; format: cell-based
TcdB [4] = target: T2, TcdB (Clostridioides difficile, UniProt P18177); assay: cell-based; parameters: species or system C. difficile; conditions: for inhibition at 40 µM: IMR-90, read-out: inhibition of TcdB-induced cell rounding
Target sequence in this assay (P18177 2-2366 limits assumed): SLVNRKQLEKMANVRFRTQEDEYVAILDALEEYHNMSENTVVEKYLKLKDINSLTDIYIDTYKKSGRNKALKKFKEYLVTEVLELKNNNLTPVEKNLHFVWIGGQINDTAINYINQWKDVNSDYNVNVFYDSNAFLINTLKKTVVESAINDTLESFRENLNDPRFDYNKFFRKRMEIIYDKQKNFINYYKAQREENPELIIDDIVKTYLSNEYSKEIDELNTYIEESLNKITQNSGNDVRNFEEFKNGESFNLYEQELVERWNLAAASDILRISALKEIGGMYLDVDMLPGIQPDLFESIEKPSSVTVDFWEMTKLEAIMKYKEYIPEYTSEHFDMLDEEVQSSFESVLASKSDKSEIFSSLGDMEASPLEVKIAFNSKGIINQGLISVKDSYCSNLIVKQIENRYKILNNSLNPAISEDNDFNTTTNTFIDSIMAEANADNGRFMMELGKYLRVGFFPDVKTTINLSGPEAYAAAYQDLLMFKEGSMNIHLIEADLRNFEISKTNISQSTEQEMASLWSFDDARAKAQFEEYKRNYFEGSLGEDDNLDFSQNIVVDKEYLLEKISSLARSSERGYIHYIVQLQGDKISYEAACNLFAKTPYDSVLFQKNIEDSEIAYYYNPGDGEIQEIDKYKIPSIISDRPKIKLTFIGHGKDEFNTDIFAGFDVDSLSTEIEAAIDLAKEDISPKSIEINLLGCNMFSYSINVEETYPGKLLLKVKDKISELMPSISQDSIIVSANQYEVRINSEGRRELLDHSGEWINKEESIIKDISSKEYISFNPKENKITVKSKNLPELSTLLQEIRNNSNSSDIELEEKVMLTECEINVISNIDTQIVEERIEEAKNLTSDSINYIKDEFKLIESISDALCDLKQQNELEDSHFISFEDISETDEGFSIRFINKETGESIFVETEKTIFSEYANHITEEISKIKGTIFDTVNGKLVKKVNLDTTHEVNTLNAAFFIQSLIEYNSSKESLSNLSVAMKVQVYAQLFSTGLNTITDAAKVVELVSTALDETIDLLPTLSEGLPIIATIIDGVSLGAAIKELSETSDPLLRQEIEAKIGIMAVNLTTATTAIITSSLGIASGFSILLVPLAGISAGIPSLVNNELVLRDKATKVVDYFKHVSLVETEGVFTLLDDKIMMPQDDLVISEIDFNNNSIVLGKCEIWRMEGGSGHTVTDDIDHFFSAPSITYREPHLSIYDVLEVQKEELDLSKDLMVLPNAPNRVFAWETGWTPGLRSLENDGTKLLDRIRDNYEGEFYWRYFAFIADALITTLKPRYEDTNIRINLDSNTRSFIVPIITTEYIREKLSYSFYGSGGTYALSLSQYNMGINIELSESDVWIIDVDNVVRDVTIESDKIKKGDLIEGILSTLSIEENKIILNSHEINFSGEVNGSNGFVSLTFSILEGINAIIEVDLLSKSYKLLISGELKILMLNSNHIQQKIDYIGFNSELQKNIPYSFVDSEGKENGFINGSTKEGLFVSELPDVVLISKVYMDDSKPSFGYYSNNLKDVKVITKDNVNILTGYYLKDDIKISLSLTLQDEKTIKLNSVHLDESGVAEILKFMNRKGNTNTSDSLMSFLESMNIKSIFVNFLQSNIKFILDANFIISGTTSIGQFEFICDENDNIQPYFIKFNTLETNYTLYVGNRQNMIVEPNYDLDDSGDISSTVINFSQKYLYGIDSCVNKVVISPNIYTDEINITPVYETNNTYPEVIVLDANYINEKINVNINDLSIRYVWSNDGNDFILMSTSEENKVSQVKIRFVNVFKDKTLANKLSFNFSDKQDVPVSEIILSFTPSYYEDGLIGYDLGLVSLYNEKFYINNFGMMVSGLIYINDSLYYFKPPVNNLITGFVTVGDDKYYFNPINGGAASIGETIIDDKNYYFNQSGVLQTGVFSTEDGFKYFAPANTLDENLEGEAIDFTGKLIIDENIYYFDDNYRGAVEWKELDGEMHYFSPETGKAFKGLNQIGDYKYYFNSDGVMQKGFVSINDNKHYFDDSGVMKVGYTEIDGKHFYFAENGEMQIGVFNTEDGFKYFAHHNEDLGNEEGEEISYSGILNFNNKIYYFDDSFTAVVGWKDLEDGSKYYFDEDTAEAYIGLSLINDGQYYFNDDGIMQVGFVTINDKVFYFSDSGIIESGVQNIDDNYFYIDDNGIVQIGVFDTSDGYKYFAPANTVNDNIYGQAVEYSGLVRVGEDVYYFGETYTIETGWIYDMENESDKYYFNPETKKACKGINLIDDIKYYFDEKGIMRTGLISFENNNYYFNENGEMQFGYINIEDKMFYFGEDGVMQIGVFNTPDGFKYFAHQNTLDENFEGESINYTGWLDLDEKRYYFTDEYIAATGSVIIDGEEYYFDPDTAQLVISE

CDT = target: T3, CDT (Clostridioides difficile, UniProt A0A9R0BM17+A0A9R0BM20); assay: Inhibition of C. difficile toxin-induced cytotoxicity, CDT (actin depolymerization); conditions: same doses that protect cells from TcdB
T3 sequence (A0A9R0BM17 210-876): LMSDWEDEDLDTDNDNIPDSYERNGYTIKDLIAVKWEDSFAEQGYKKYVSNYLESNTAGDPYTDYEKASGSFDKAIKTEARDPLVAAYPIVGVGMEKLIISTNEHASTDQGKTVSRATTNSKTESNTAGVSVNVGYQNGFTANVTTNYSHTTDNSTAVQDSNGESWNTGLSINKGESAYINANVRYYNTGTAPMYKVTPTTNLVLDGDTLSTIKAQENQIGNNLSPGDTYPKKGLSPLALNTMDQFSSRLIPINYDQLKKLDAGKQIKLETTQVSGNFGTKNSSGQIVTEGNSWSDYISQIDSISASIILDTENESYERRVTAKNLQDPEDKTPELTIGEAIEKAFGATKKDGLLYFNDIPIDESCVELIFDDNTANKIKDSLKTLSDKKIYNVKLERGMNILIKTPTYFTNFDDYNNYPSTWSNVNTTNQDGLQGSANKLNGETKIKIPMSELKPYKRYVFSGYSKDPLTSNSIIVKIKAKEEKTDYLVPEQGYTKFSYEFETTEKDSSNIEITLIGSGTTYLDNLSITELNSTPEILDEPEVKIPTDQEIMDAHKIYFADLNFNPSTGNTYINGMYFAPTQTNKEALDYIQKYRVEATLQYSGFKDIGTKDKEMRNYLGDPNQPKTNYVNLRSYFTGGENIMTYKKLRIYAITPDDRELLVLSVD
T3 sequence (A0A9R0BM20 44-463): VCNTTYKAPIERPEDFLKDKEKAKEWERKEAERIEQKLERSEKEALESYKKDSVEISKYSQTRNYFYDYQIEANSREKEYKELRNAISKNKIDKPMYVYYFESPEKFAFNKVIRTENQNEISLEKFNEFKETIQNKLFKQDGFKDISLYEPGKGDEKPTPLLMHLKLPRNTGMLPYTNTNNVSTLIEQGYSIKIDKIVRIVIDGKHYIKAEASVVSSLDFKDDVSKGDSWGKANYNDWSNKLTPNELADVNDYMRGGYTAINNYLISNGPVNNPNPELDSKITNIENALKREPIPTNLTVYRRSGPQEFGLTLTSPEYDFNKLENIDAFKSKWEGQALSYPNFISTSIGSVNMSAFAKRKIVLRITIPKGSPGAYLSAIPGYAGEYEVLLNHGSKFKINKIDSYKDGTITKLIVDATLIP
Experimental: Cells were stained with 1 uM Hoechst for 30 min, then combined photos were taken for each compound at a concentration corresponding to maximum protection from TcdB using a 10× objective and appropriate filter sets for Hoechst and Alexa488 fluorescence (Zeiss).

IMR90 cells = assay: Lysotracker assay, endosomal pH neutralization; format: cell-based, human; conditions: pre-treating cells
Experimental: Endosomal pH neutralization was assayed essentially as described by Slater et al. (55); IMR90 cells in complete EMEM were plated at 14,000 cells/well (˜95% confluency). After 24 h the media was changed to SFM for 60 minutes, then compound was added to 40 μM and incubated at 37° C. for 2 h. Lysotracker red DND-99 and Hoechst (Life Technologies) were added to 0.1 μM and 1 μM, respectively, and incubated for 60 minutes. Excess dye was removed by media change and the fluorescence at ex/em 574/594 was read on an Envision plate reader (Perkin Elmer). Representative cell images were taken using a Zeiss Axiovert fluorescence microscope using DAPI and Texas Red filters to visualize the Hoechst and Lysotracker staining, respectively.

TcdB APD domain = target: T4, TcdB APD domain (Clostridioides difficile, UniProt P18177); assay: In vitro inositol hexakisphosphate-induced autoprocessing (cysteine protease) assay; format: biochemical, C. difficile; conditions: up to 10 μM niclosamide
T4 construct: Cell lysates were prepared as described for full-length TcdB; made in house; host or cells: Bacillus megaterium
Text: Cleavage was visualized by electrophoresing the samples on SDS polyacrylamide gels and staining with Coomassie Blue R250.

TcdB [5] = target: T2, TcdB; conditions: mammalian cells expressing all three known receptors
Target sequence in this assay (P18177 2-2366 limits assumed): as the sequence (P18177 2-2366 limits assumed) above
Experimental: TcdB binding to Vero cells was assessed as described earlier with minor modifications(57). […] Mixtures were then added to confluent cultures of pre-chilled Vero cells and plates were incubated on ice for 45 min. Plates were then washed 3 times with cold PBS and harvested by scraping. Membranes were isolated, and samples analyzed by Western blot as previously described (57).

[6] = target: T5, TcdB glucosyltransferase domain (GTD) (Clostridioides difficile, UniProt P18177); assay: In vitro GTD glucosyltransferase assay; format: biochemical, C. difficile; conditions: up to 10 μM niclosamide, n=3
T5 construct: The TcdB glucosyltransferase domain (GTD); made in house
Experimental: (§1) FIG. 2. […] (a) Representative Western blot image for intracellular Rac1 glucosylation. […] Cells were harvested in lysis buffer 1 h later and processed for Western blot as described in Online Methods. […] (b) In vitro GTD glucosyltransferase assay. […] Activity was measured as described in the Online Methods. (c) In vitro auto-processing assay.
For each reaction containing 10 nM GTD and 25 μM UDP-glucose, compound was added (1% final DMSO) and preincubated 30 minutes, followed by addition of gstRac1 to 0.8 μM. The reaction was stopped after a 60 min reaction time with an equal volume of Laemmli loading buffer plus β-mercaptoethanol (Bio-Rad, Mississauga. ON), heated to 90° C. before immediately loading on an SDS polyacrylamide gel. […]
Reactions were started with the simultaneous addition of 2.5 μl each of GST-Rac1 (20 μM final) and a mixture of 0.5 μCi of UDP-[6 ^3H]-glucose (0.5 μM final) and cold UDP-glucose (19.5 μM final). […] The beads were allowed to settle overnight at room temperature to increase the signal to background ratio before being analyzed on a TopCount NXT scintillation counter (PerkinElmer). Results were analyzed using GraphPad Prism 5.0.
Experiments were performed as per the manufacturer's instructions. […] Results were analyzed with SoftMax Pro 6.2.2 and GraphPad Prism 5.0.

Rac1 glucosylation = assay: Intracellular Rac1 glucosylation Western blot; format: cell-based, human; conditions: IMR-90 cells, niclosamide 15 min then TcdB, harvested 1 h later
Experimental: as §1

TcdB [7] = target: T2, TcdB
Target sequence in this assay (P18177 2-2366 limits assumed): as the sequence (P18177 2-2366 limits assumed) above
Experimental: Loss of cellular ATP as a marker of high dose (1 nM) TcdB toxicity was measured as described for the Arrayscan screen protocol, except that CellTiter-Glo reagent (Promega, Madison, Wis.) was added to the cells 3 h post toxin challenge, and luminescence was recorded on a Spectramax M5 plate reader.

TcdB [8] = target: T2, TcdB; remark: listed apart in the source
Experimental: TcdB protein was diluted in phosphate buffer (100 mM KPO4, 150 mM NaCl, pH 7) containing 5×SYPRO Orange (Invitrogen, Burlington, ON) and a serial dilution of test compound. A Biorad CFX96 qRT-PCR thermocycler was used to establish a temperature gradient from 15° C. to 95° C. in 30 s increments, while simultaneously recording the increase in SYPRO Orange fluorescence as a consequence of binding to hydrophobic regions exposed on unfolded proteins. The Bio-Rad CFX Manager 3.1 software was used to integrate the fluorescence curves to calculate the melting point.

C. difficile [9] = assay: microbe, parasite or virus in culture; format: cell-based
C. difficile [10] = assay: microbe, parasite or virus in culture; format: cell-based; remark: listed apart in the source

With `O=C(Nc1ccc([N+](=O)[O-])cc1Cl)c1cc(Cl)ccc1O` [NEN, niclosamide ethanolamine] the survival of recurrence (C. difficile [1]; NEN 50 mg/kg) was “all NEN-treated mice survived recurrence”, the “survival from C. difficile challenge” value (C. difficile [1]; NEN 50 mg/kg oral gavage, vancomycin 0.5 mg/mL in drinking water, more than 60% of control moribund) was “all mice in the NEN group survived” and the “diarrhea scores at recurrence” value (C. difficile [1]; mouse, in vivo) was “less severe diarrhea scores”. For the same molecule, the “protection against TcdB derived from hypervirulent strains” value (TcdB027) was “protected”, the IC50 (TcdA) was 550 ± 80 nM and the “TEER assay, dose dependence” value (CaCo-2 cells; Caco-2 cell monolayers) was “dose-dependently protects”. For the same molecule, the “median oral lethal dose (LD50)” value [2] was 10,000 mg/kg body weight, the MIC (C. sporogenes ATCC3584) was over 19 µg/mL and the MIC [3] was over 19 µg/mL.

In the case of `Cc1cc(C(C#N)c2ccc(Cl)cc2)c(Cl)cc1NC(=O)c1cc(I)cc(I)c1O` (stereo not shown) [closantel], the “inhibition of TcdB-induced cell rounding” value (TcdB [4]; high-throughput screen, libraries screened at 40 μM, IMR90 cells) is reported as 60%.

For `O=C(Nc1ccc([N+](=O)[O-])cc1Cl)c1cc(Cl)ccc1O` [niclosamide], the “protection from CDT-induced damage (depolymerization of the actin cytoskeleton)” value (CDT) was “completely protected”, the “protection from TcdA-induced cell rounding” value (TcdA) was “completely protected” and the IC50 (TcdA) was 500 ± 100 nM. The “Lysotracker fluorescent staining (endosomal pH)” value (IMR90 cells) was “reduces Lysotracker fluorescent staining”, the “TcdB-induced reduction in Phalloidin staining” value (CaCo-2 cells; Caco-2 cells) was “prevented” and the “TcdB-induced disruption of monolayer integrity” value (CaCo-2 cells; co-treatment with TcdB, confluent CaCo-2 monolayer) was “prevented”. The inhibition at 40 µM (TcdB [4]) was 71%, the “Protection from TcdB-induced cell-rounding (extent)” value (TcdB [4]; human IMR-90 fibroblasts co-incubated with niclosamide and TcdB) was “complete” and the “Release of GTD by the APD domain (autoprocessing)” value (TcdB APD domain) was “unaffected”. The “TcdB binding to the cell surface” value (TcdB [5]) was “did not affect”, the “inhibition of GTD enzymatic activity in vitro” value [6] was “no direct inhibition” and the “Rac1 glucosylation in cells” value (Rac1 glucosylation) was “dose-dependently inhibits”. For the same molecule, the TcdB-induced necrosis (TcdB [7]) was “inhibited” and the “direct binding interaction with TcdB (thermal stability)” value (TcdB [8]) was “no evidence for a direct binding interaction”.

For `CN[C@H](CC(C)C)C(=O)N[C@H]1C(=O)N[C@@H](CC(N)=O)C(=O)N[C@H]2C(=O)N[C@H]3C(=O)N[C@H](C(=O)N[C@H](C(=O)O)c4cc(O)cc(O)c4-c4cc3ccc4O)[C@H](O)c3ccc(c(Cl)c3)Oc3cc2cc(c3O[C@@H]2O[C@H](CO)[C@@H](O)[C@H](O)[C@H]2O[C@H]2C[C@](C)(N)[C@H](O)[C@H](C)O2)Oc2ccc(cc2Cl)[C@H]1O` [Vancomycin], the MIC (C. difficile [9]) was 2 µg/mL (≈ 1.38 µM), the MIC (C. difficile [9]; Clostridioides difficile) was 1 µg/mL (≈ 0.69 µM) and the MIC (C. sporogenes ATCC3584) was 8 µg/mL (≈ 5.52 µM). For the same molecule, the MIC [3] was 4 µg/mL (≈ 2.76 µM).

In the case of `CCc1c(Cl)c(O)c(Cl)c(O)c1C(=O)O[C@H]1[C@H](O)[C@H](OC)[C@H](OC/C2=C\C=C\C[C@H](O)/C(C)=C/[C@H](CC)[C@@H](O[C@@H]3OC(C)(C)[C@@H](OC(=O)C(C)C)[C@H](O)[C@@H]3O)/C(C)=C/C(C)=C/C[C@@H]([C@@H](C)O)OC2=O)O[C@@H]1C` [Fidaxomicin], the MIC (C. difficile [10]) is reported as 0.06 μg/mL and 0.06^4 μg/mL and the MIC (C. difficile [10]; Clostridioides difficile) is reported as 0.12 µg/mL (≈ 0.113 µM).

Work on `O=C(Nc1cc(Cl)cc(Cl)c1O)c1c(O)c(Cl)cc(Cl)c1Cl` [oxyclozanide] yielded an inhibition at 40 µM (TcdB [4]) of 43%.

Source: US11166926B2 (priority 2018, dated 2021)
